The source of these data is patent US7223777B2, “Compounds for the management of aging-related and diabetic vascular complications, process for their preparation, therapeutic and cosmetic uses thereof” (Torrent Pharmaceuticals Ltd., priority 2001, dated 2007).

The target of test [1] is T1, AGE-BSA (Bos taurus, UniProt P02769).
T1 construct: Bovine serum albumin (fraction V) (BSA); from tissue; host or cells: bovine serum (fraction V); own knowledge: fraction V is the albumin fraction of plasma/serum
Nature of the test: In-vitro screening for AGE-breaking activity (AGE-BSA incubated with compound; ELISA / gel permeation chromatography). It is filed as biochemical, bovine. The conditions noted are these: 37° C., 24 hours. As to the method: Fluorescence was used as the criteria to monitor the increased AGE formation.
160 mg/ml of protein, bovine serum albumin, BSA and 1.6M glucose sugar were dissolved in phosphate buffered saline, PBS. Sodium azide was added at 0.02% concentration as a preservative. The solution was filtered asceptically through a […] filter and kept for aging at 37° C. for 16 weeks. After 16 weeks the solution was dialyzed against PBS, aliquoted and stored at −20° C.
To determine the AGE breaking activity, 10 μg/ml of the 16 weeks AGE-BSA was incubated with different concentrations of the test compounds at 37° C. for 24 hours and AGE breaking activity of the test compounds by ELISA was determined.
• 1. Different concentrations of 16 weeks AGE-BSA were coated on a microtiter plate as standard. Each concentration is coated in triplicates. • 2. The test samples were coated on microtiter plate at a concentration of 5 ng. to 20 ng per well in triplicates. • 3. The plate was incubated at 37° C. for one hour. • 4. After incubation the plate was washed with PBST (PBS with 0.05% Tween 20). • 5. Blocking with 5% skimmed milk in PBS at 37° C. for one hour was done. • 6. The plate was washed with PBST. • 7. Primary antibody against AGE-BSA was added and the plate is incubated at 37° C. for one hour. • 8. The plate was washed with PBST. • 9. Secondary antibody anti rabbit HRPO (Horse-Radish Per Oxidase) conjugate was added and the plate is incubated at 37° C. for one hour. • 10. The plate was washed with PBST. • 11. Colour development with OPD (orthophenylenediamine dihydrochloride) and hydrogen peroxide was done. • 12. OD (optical density) at (450 nm reading –620 nm reading) was measured after incubation at 37° C. for 15 minutes with Microplate ELISA Reader.
The breaker activity of the compounds were determined by the following formula:
[formula] OD450-620Control=Absorbance of 20 ng AGE-BSA after incubation at 37° C. for 24 hours without test compound. OD450-620Test=Absorbance of 20 ng AGE-BSA after incubation at 37° C. for 24 hours with required concentration of test compound.
Gel Permeation Chromatography based method was used to determine AGE breaking activities of the compounds.
Separation by Gel Permeation Chromatography (GPC) depends on differences in the size, more precisely the hydrodynamic volume, of the proteins in a sample. […] The pores of a column particle are differentially accessible to smaller particles, depending on their size. This volume of the column is called (V1). The total accessible volume (Vt) is the sum of the volume outside the particles (V0) and the volume accessible inside the particles (V1): Vt=V0+Vi Therefore, in a typical Gel Permeation Chromatography (GPC) run, high molecular weight molecules elute at a lower retention time whereas lower molecular weight molecules are retained for longer time. For the purpose of quantification, the area under the curve for the respective molecule is recorded. The same principle has been applied in the in vitro screening of the molecules of instant invention. Highly cross-linked Advanced Glycosylated Endproducts (AGE) were prepared in vitro by incubating Bovine Serum Albumin (BSA) with glucose for a period of 16 weeks. […] The reduction in the area of AGE-BSA incubated in the presence of AGE breaker as compared to that of control AGE BSA (incubated in absence of AGE breaker) gives an estimate of the AGE breaker activity of the drug. In order to check the non-specific activity of the molecule, a similar experiment was repeated with BSA as well. Methodology:
A known concentration of 16-week AGE-BSA was incubated with and without a predetermined concentration of the drug at 37° C. for 24 hours in clean transparent glass test tubes. The solution without drug served as the control and the solution containing the drug was treated as the test sample.
Gel permeation chromatography was performed on equal volumes of control AGE-BSA preparation and solution of AGE-BSA treated with drug. […]
For orientation: An ELISA detects its analyte on a solid surface through an enzyme-linked reagent.

A short description of test [2]: Free radical scavenging activity on ABTS radical cation. It is filed as biochemical. As for the experimental part: This method measures the relative ability of free radical scavenging substances to scavenge the ABTS.^+ i.e. 2,2-Azino-bis-(3-ethyl benzo thiazoline-6-sulfonate) radical cation as compared to a standard amount of standard or free radical scavengers antioxidants. Incubation of ABTS with Peroxidase (metmyoglobin) and hydrogen peroxide results in the production of radical cation ABTS.^+. This species is blue-green in colour and can be detected at 730 nm. Antioxidants or free radical scavengers in the added sample that causes suppression of the color to a degree that is proportional to their concentration.
Preparation of Buffer Solutions: • a. Phosphate Citrate Buffer (pH 5.0): 48.5 ml of 0.1M citric acid with sufficient 0.2M disodium hydrogen phosphate to produce 100 ml. • b. Phosphate Buffer Saline (PBS): Dissolve 40.0 g of NaCl, 1.0 g of KCl, 1.0 g of KH2PO4 and 3.05 g of Na2HPO4 in 1 liter milli-Q water. Dilute 200 ml of above solution to 1 liter with milli-Q water (pH 7.4–7.6).
Preparation of ABTS Stock Solution (2 mM): • 1 tablet (10 mg) was dissolved in phosphate citrate buffer (pH 5.0) to give a 2 mM solution.
Preparation of Horse Radish Peroxidase Working Solution: • 0.1 mg was dissolved in 10 ml of phosphate buffer saline, 1 ml of this solution was diluted to 100 ml with PBS.
Preparation of Hydrogen Peroxide (1.08 mM) Solution: • 12 μl of Hydrogen Peroxide (30% w/v) was diluted to 100 ml with PBS.
Preparation of Drug Solutions: • 0.1 mM of stock solution of the drug was prepared which was serially diluted in PBS to get 0.05 mM, 0.025 mM and 0.0125 mM solutions.
Preparation of ABTS Radical Stock Solution: • To 2 ml of ABTS stock solution, 1 ml of horseradish Peroxidase working solution was added. • As soon as 2 ml of Hydrogen peroxide solution was added to the above solution, blue-green colour of the ABTS radicals appeared. This solution was incubated at 30° C. for 30 min in order to ensure the completion reaction. Make up the volume to 10 ml with PBS.
Preparation of Control Solution: • 900 μl of ABTS radical stock solution were added to an eppendorf tube. To it were added 100 μl of PBS solution.
Preparation of Test Solution: • 900 μl of ABTS radical stock solutions were added to different eppendorf tubes. To it were added 100 μl of various concentrations of drug solution.
Measurement of Absorbance (O.D): • The absorbance of control and test samples was recorded immediately at 730 nm taking PBS as blank.
Calculation: • The percent antioxidant activity was calculated according to the formula: % Antioxidant activity=100−[O.D of test sample/O.D of control×100]

T1 sequence (P02769 25-607): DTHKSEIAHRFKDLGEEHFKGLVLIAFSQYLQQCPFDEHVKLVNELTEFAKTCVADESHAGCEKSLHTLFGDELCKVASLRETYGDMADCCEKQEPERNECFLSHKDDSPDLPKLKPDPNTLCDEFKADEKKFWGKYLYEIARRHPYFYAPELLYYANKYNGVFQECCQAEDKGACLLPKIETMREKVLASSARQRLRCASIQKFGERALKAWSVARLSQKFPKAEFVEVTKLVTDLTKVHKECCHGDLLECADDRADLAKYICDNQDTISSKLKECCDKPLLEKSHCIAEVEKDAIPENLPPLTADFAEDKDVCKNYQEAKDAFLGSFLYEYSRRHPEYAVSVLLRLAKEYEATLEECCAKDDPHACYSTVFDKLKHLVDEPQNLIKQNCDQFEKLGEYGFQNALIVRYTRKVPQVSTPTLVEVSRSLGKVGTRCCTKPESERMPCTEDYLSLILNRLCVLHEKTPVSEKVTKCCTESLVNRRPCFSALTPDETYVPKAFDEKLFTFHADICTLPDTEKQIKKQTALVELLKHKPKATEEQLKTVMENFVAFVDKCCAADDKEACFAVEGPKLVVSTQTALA

“1-(2-Cyclopropylamino-2-oxoethyl)-3-[(1-cyclohexyl-3-phenylmethyl)pyrazol-5-yl]pyridinium chloride [Compound 23]”: the “% Breakage” value in test [1] (10 mM compound) came to 53.29%.
As for “1-(2-Cyclopropylamino-2-oxoethyl)-3-[(3-(2-cyclohexylethyl)pyrazol-5-yl]pyridinium chloride [Compound 21]”, the “% Breakage” value in test [1] (10 mM compound) is 93.43%.
For “1-(2-Thien-2′-yl-2-oxoethyl)-3-[(1-cyclohexyl-3-phenoxymethyl)pyrazol-5-yl]pyridinium chloride [Compound 38]”, the “Relative Free Radical Scavenging Activity (%) on ABTS” value in test [2] (12.5 μM) worked out at 27.70%; in test [2] (25.0 μM) it was 44.78%; in test [2] (50.0 μM) it was 61.98%; in test [2] (100.0 μM), 66.92%.
For the compound `Cc1cc(C)n(Cc2cc(-c3ccc[n+](CC(=O)NC4CC4)c3)[nH]n2)n1.[Br-]` [Compound 7, 1-[2-(Cyclopropylamino)-2-oxoethyl]3-[3-{(3,5-dimethylpyrazol-1-yl)methyl}-pyrazol-5-yl]-pyridinium bromide], in test [1] (1.0 mM compound), the “% Breakage” value is on record as 51.72%.
Regarding `Cc1cc(C)n(Cc2cc(-c3ccc[n+](CC(=O)c4cc([N+](=O)[O-])cs4)c3)[nH]n2)n1.[Br-]` [Compound 8, 1-{2-(4-Nitro-2-thienyl)-2-oxoethyl}-3-[3{(3,5-dimethylpyrazol-1-yl)methyl}-pyrazol-5-yl]-pyridinium bromide], the “% Breakage” value in test [1] (5 mM compound) was determined as 85.31%. Further, the “Relative Free Radical Scavenging Activity (%) on ABTS” value in test [2] (12.5 μM) is on record as 22.22%; in test [2] (25.0 μM), 38.18%; in test [2] (50.0 μM) it was 67.14%; in test [2] (100.0 μM), 99.71%.
For the compound `Cc1ccc(C(=O)C[n+]2cccc(-c3cc(Cc4ccccc4)n[nH]3)c2)s1.[Cl-]` [Compound 12, 1-(2-(5-Methyl-2-Thienyl)-2-oxoethyl)-3-[(3-phenylmethyl)pyrazol-5-yl]pyridinium chloride], in test [1] (10 mM compound), the “% Breakage” value is 89.23%. The “Relative Free Radical Scavenging Activity (%) on ABTS” value in test [2] (12.5 μM) is on record as 22.34%; in test [2] (25.0 μM) it was 40.97%; in test [2] (50.0 μM), 71.47%; in test [2] (100.0 μM), 84.62%.
`O=C(C[n+]1cccc(-c2cc(Cc3ccccc3)n[nH]2)c1)c1ccccc1.[Br-]` [Compound 14, 1-(2-Phenyl-2-oxoethyl)-3-[(3-phenylmethyl)pyrazol-5-yl]-pyridinium bromide]: the “% Breakage” value in test [1] (10 mM compound) was 58.14%.
Same read-out and setting: next, `O=C(C[n+]1cccc(-c2cc(Cc3ccccc3)nn2-c2ccccc2)c1)NC1CC1.[Cl-]` [Compound 15, 1-(2-Cyclopropylamino-2-oxoethyl) 3-[(1-phenyl-3-phenylmethyl)pyrazol-5-yl]-pyridinium chloride]: 80.03%; `O=C(C[n+]1cccc(-c2cc(COc3ccccc3)n[nH]2)c1)N1CCC(Cc2ccccc2)CC1.[Br-]` [Compound 16, 1-(2-(4-Benzyl-1-piperidinyl)-2-oxoethyl) 3-[(3-phenoxymethyl)pyrazol-5-yl]-pyridinium bromide]: 95.51%.
On to `Cc1ccc(C(=O)C[n+]2cccc(-c3cc(CCC4CCCCC4)n[nH]3)c2)s1.[Cl-]` [Compound 20], for which the “Relative Free Radical Scavenging Activity (%) on ABTS” value in test [2] (12.5 μM) came out at 6.15%; in test [2] (25.0 μM), 9.06%; in test [2] (50.0 μM), 34.31%; in test [2] (100.0 μM), 57.75%.
In the case of `O=C(C[n+]1cccc(-c2cc(Cc3ccccc3)n[nH]2)c1)NC12CC3CC(CC(C3)C1)C2.[Cl-]` [Compound 25, 1-{2-(1-Adamantylamino-2-oxoethyl)}-3-[(3-phenylmethyl)pyrazol-5-yl]pyridinium chloride], in test [1] (5 mM compound), the “% Breakage” value stood at 98.59%.
On to `Cc1cc(C)n(Cc2cc(-c3ccc[n+](CC(=O)c4cc([N+](=O)[O-])cs4)c3)n(C3CCCCC3)n2)n1.[Br-]` [Compound 27, 1-(2-(4-nitro-2-thienyl)-2-oxoethyl)-3-[(1-cyclohexyl-3-(3,5-dimethylpyrazol-1-yl)-methyl)pyrazol-5-yl]pyridinium bromide], for which the “% Breakage” value in test [1] (10 mM compound) came out at 86.98%. Moreover, the “Relative Free Radical Scavenging Activity (%) on ABTS” value in test [2] (12.5 μM) turned out to be 16.16%; in test [2] (25.0 μM), 27.12%; in test [2] (50.0 μM), 39.05%; in test [2] (100.0 μM), 51.04%.
Take `O=C(C[n+]1cccc(-c2cc(COc3ccccc3)n[nH]2)c1)NC1CC1.[Cl-]` [Compound 31, 1-(2-Cyclopropylamino-2-oxoethyl)-3-[(3-phenoxymethyl)pyrazol-5-yl]pyridinium chloride]: the “% Breakage” value in test [1] (10 mM compound) is 45.72%.
Regarding `O=C(C[n+]1cccc(-c2cc(CCC3CCCCC3)nn2-c2ccccc2)c1)c1cccs1.[Br-]` [Compound 37, 1-(2-Thien-2′-yl-2-oxoethyl)-3-[1-phenyl-3-(2-cyclohexylethyl)pyrazol-5-yl]pyridinium bromide], the “% Breakage” value in test [1] (10 mM compound) was determined as 85.45%. The “Relative Free Radical Scavenging Activity (%) on ABTS” value in test [2] (12.5 μM) amounted to 21.79%; in test [2] (25.0 μM) it was 37.92%; in test [2] (50.0 μM), 41.95%; in test [2] (100.0 μM), 39.46%.
Turning to `Cl.c1ccc(OCc2cc(-c3cccnc3)[nH]n2)cc1` [Compound 40, 3-[(3-Phenoxymethyl)pyrazol-5-yl]pyridine hydrochloride], the “% Breakage” value in test [1] (10 mM compound) was found to be 66.06%.
